Measurements as given in ChEMBL document CHEMBL4414596, “Highly Oxygenated Triterpenoids and Rare Tetraterpenoids from Abies chensiensis and Their Antibacterial Activity” (2019).
Converted amounts (≈) assume the structure as drawn. The source made the active and inactive calls. The calls are words filed in the database; no cut-off is given here.

Tests used:
[1] = test system: Bacillus subtilis; experiment: Antibacterial activity against Bacillus subtilis after 24 hrs by broth microdilution method; format: functional
[2] = test system: Staphylococcus aureus; experiment: Antibacterial activity against Staphylococcus aureus after 24 hrs by broth microdilution method; format: functional
[3] = test system: Escherichia coli; experiment: Antibacterial activity against Escherichia coli after 24 hrs by broth microdilution method; format: functional
[4] = test system: Klebsiella pneumoniae; experiment: Antibacterial activity against Klebsiella pneumoniae after 24 hrs by broth microdilution method; format: functional
[5] = test system: Bacillus subtilis; experiment: Induction of morphological changes in Bacillus subtilis assessed as wrinkled surface at 10 to 40 ug/ml after 24 hrs by SEM analysis; format: functional, organism-based
[6] = test system: Bacillus subtilis; experiment: Antibacterial activity against Bacillus subtilis assessed as growth inhibition at 5 to 80 ug/ml after 2 to 26 hrs relative to control; format: functional
[7] = test system: Bacillus subtilis; experiment: Induction of morphological changes in Bacillus subtilis assessed as irregular size at 10 to 40 ug/ml after 24 hrs by SEM analysis; format: functional, organism-based
[8] = test system: Bacillus subtilis; experiment: Induction of morphological changes in Bacillus subtilis assessed as slender shape at 10 to 40 ug/ml after 24 hrs by SEM analysis; format: functional, organism-based
[9] = test system: Bacillus subtilis; experiment: Induction of morphological changes in Bacillus subtilis assessed as cell disruption at 10 to 40 ug/ml after 24 hrs by SEM analysis; format: functional, organism-based
[10] = test system: Bacillus subtilis; experiment: Antibacterial activity against Bacillus subtilis assessed as growth inhibition at 5 ug/ml after 10 hrs; format: functional, organism-based
[11] = test system: Bacillus subtilis; experiment: Antibacterial activity against Bacillus subtilis assessed as growth inhibition at 10 to 80 ug/ml measured up to 26 hrs relative to control; format: functional

Structure (SMILES) | MIC [1] [µg/mL] | MIC [2] [µg/mL] | MIC [3] [µg/mL] | MIC [4] [µg/mL] | Activity [5] | growth inhibition (GI) [6] [%] | Activity [7] | Activity [8] | Activity [9] | growth inhibition (GI) [10] | growth inhibition (GI) [11] [%]
CO[C@@H]1CC[C@]23C[C@]24CC[C@]2(C)[C@@H]([C@H](C)CC/C=C(\C)C(=O)O)C[C@@H](O)[C@@]2(C)[C@@H]4CC[C@H]3C1(C)C | 20 (≈ 41.1 µM) | > 40 | > 40 | > 40 | – | – | – | – | – | – | –
C/C(=C\CC[C@@H](C)[C@H]1CC[C@@]2(C)[C@@H]3CC[C@H]4C(C)(C)[C@@H](O)CC[C@@]45C[C@@]35CC[C@]12C)C(=O)O [MANGIFEROLIC ACID] | > 40 | > 40 | > 40 | > 40 | – | – | – | – | – | – | –
O=C(N[C@H](CO)[C@H](O)c1ccc([N+](=O)[O-])cc1)C(Cl)Cl [CHLORAMPHENICOL] | 5 (≈ 15.5 µM) | 20 (≈ 61.9 µM) | > 40 | > 40 | – | – | – | – | – | – | –
CN[C@@H]1[C@H](O[C@H]2[C@H](O[C@H]3[C@H](O)[C@@H](O)[C@H](N=C(N)N)[C@@H](O)[C@@H]3N=C(N)N)O[C@@H](C)[C@]2(O)C=O)O[C@@H](CO)[C@H](O)[C@H]1O [STREPTOMYCIN] | – | – | 5 (≈ 8.6 µM) | 5 (≈ 8.6 µM) | – | – | – | – | – | – | –
C/C(=C\[C@@H](O)C[C@@H](C)[C@H]1CC[C@@]2(C)[C@@H]3CC[C@H]4C(C)(C)[C@@H](O)CC[C@@]45C[C@@]35CC[C@]12C)C(=O)O | 20 (≈ 42.3 µM) | > 40 | > 40 | > 40 | – | – | – | – | – | – | –
C=C1CC[C@@](C)([C@H](C)CC(=O)[C@H]2CC(CCC=C(C)C)=CC[C@]2(C)C(=O)O)[C@@]12CCC1=C2CC[C@H]2C(C)(C)[C@@H](O)CC[C@]12C | > 40 | > 40 | > 40 | > 40 | – | – | – | – | – | – | –
C/C(=C\CC[C@@H](C)[C@H]1C[C@@H](O)[C@@]2(C)[C@@H]3CC[C@H]4C(C)(C)[C@H](O)CC[C@@]45C[C@@]35CC[C@]12C)C(=O)O | 10 (≈ 21.2 µM) | > 40 | > 40 | > 40 | – | – | – | – | – | – | –
C[C@H](CC[C@H](O)[C@](C)(O)CO)[C@H]1CC[C@@]2(C)[C@@H]3CC[C@H]4C(C)(C)C(=O)CC[C@@]45C[C@@]35CC[C@]12C (relative stereo) | > 40 | > 40 | > 40 | > 40 | – | – | – | – | – | – | –
C[C@H](CC[C@H](O)[C@](C)(O)CO)[C@H]1CC[C@@]2(C)[C@@H]3CC[C@H]4C(C)(C)[C@@H](O)CC[C@@]45C[C@@]35CC[C@]12C (relative stereo) | > 40 | > 40 | > 40 | > 40 | – | – | – | – | – | – | –
C=C1CC[C@@](C)([C@H](C)CC(=O)C[C@@H](C)C(=O)O)[C@@]12CCC1=C2CC[C@H]2C(C)(C)C(=O)CC[C@]12C | 10 (≈ 21.3 µM) | 40 (≈ 85.3 µM) | > 40 | > 40 | – | – | – | – | – | – | –
C[C@H](CC[C@@H](O)C(C)(C)O)[C@H]1CC[C@@]2(C)[C@@H]3CC[C@H]4C(C)(C)C(=O)CC[C@@]45C[C@@]35CC[C@]12C | > 40 | > 40 | > 40 | > 40 | – | – | – | – | – | – | –
CC1(C)S[C@@H]2[C@H](NC(=O)[C@H](N)c3ccccc3)C(=O)N2[C@H]1C(=O)O [AMPICILLIN] | > 40 | 40 (≈ 114 µM) | > 40 | > 40 | – | – | – | – | – | – | –
C/C(=C\[C@@H](O)C[C@@H](C)[C@H]1CC[C@@]2(C)C3=C(CC[C@]12C)[C@@]1(C)CCC(=O)C(C)(C)[C@@H]1CC3)C(=O)O | 10 (≈ 21.2 µM) | 40 (≈ 85 µM) | > 40 | > 40 | – | – | – | – | – | – | –
CC1=CC(O)(C[C@@H](C)[C@H]2CC[C@@]3(C)C4=C(CC[C@]23C)[C@@]2(C)CCC(=O)C(C)(C)[C@@H]2CC4)OC1=O (some centres not stated) | > 40 | > 40 | > 40 | > 40 | – | – | – | – | – | – | –
C/C(=C\CC[C@@H](C)[C@H]1CC[C@@]2(C)[C@@H]3CC[C@H]4C(C)(C)[C@H](O)CC[C@@]45C[C@@]35CC[C@]12C)C(=O)O [ISOMANGIFEROLIC ACID] | > 40 | > 40 | > 40 | > 40 | – | – | – | – | – | – | –
CC1=C[C@@H](C[C@@H](C)[C@H]2CC[C@@]3(C)[C@@H]4CC[C@H]5C(C)(C)[C@@H](O)CC[C@@]56C[C@@]46CC[C@]23C)OC1=O | > 40 | > 40 | > 40 | > 40 | – | – | – | – | – | – | –
C/C(=C\CC[C@@H](C)[C@H]1C[C@@H](O)[C@@]2(C)[C@@H]3CC[C@H]4C(C)(C)C(=O)CC[C@@]45C[C@@]35CC[C@]12C)C(=O)O | 5 (≈ 10.6 µM) | 40 (≈ 85 µM) | > 40 | > 40 | Active | 100 | Active | Active | Active | – | –
CO[C@@H]1CC[C@]23C[C@]24CC[C@]2(C)[C@@H]([C@H](C)CC/C=C(\C)C(=O)O)[C@@H](O)[C@@H](O)[C@@]2(C)[C@@H]4CC[C@H]3C1(C)C | 20 (≈ 39.8 µM) | 20 (≈ 39.8 µM) | > 40 | > 40 | – | – | – | – | – | – | –
C/C(=C\CC[C@@H](C)[C@H]1[C@@H](O)[C@@H](O)[C@@]2(C)[C@@H]3CC[C@H]4C(C)(C)C(=O)CC[C@@]45C[C@@]35CC[C@]12C)C(=O)O | > 40 | > 40 | > 40 | > 40 | – | – | – | – | – | – | –
C/C(=C\CC[C@@H](C)[C@H]1C[C@@H](O)[C@@]2(C)[C@@H]3CC[C@H]4C(C)(C)[C@@H](O)CC[C@@]45C[C@@]35CC[C@]12C)C(=O)O | 10 (≈ 21.2 µM) | 20 (≈ 42.3 µM) | > 40 | > 40 | – | – | – | – | – | Active | 100
C/C(=C\CC[C@@H](C)[C@H]1CC[C@@]2(C)[C@@H]3CC[C@H]4C(C)(C)C(=O)CC[C@@]45C[C@@]35CC[C@]12C)C(=O)O [MANGIFERONIC ACID] | > 40 | > 40 | > 40 | > 40 | – | – | – | – | – | – | –
CO[C@@H]1CC[C@]23C[C@]24CC[C@]2(C)[C@@H]([C@H](C)C[C@H](O)/C=C(\C)C(=O)O)CC[C@@]2(C)[C@@H]4CC[C@H]3C1(C)C | > 40 | > 40 | > 40 | > 40 | – | – | – | – | – | – | –
CC1=C[C@@H](C[C@@H](C)[C@H]2C[C@@H](O)[C@@]3(C)[C@@H]4CC[C@H]5C(C)(C)[C@H](O)CC[C@@]56C[C@@]46CC[C@]23C)OC1=O | > 40 | > 40 | > 40 | > 40 | – | – | – | – | – | – | –
